Legend:
Assay type in all cases: cell-based
[1] = tested on: corticotroph tumor cell line AtT-20; experiment: Proliferation assay (WST-1 assay); settings: 96 hours treatment, different doses, WST-1, vs vehicle = 100%
Method: AtT-20 cells were treated for 96 hours with different doses of (A) 17-AAG, (B) silibinin, or (C) novobiocin.
Cell proliferation was measured with the WST-1 proliferation assay (Roche Applied Science). This assay measures the activity of the mitochondrial succinate dehydrogenase. After 4 days of treatment with different HSP90 inhibitors, the WST-1 reagent was added to AtT-20 cell cultures in 96-well plates to a final dilution of 1:10. The cells were incubated for 2 hours and then the absorbance of the reaction product was measured with an ELISA reader at 440 nm, following the manufacturer's instructions.

[2] = tested on: GR (glucocorticoid receptor) protein; experiment: Western blot, induction of GR degradation; settings: AtT-20 cells
Method: (§1) AtT-20 cells were treated with (A) 17-AAG, (B) silibinin, or (C) novobiocin. At the end of the treatment, the GR, Cdk1 and actin proteins were detected by Western blot.
(§2) AtT-20 cells in 6-well plates were treated with different HSP90 inhibitors for the times indicated in each experiment. At the end of the treatment, cell lysates were prepared in lysis buffer supplemented with protease and phosphatase inhibitor cocktail (Roche). Samples of the lysates were separated by PAGE and blotted onto membranes using standard western blot procedures with gels and buffers from Invitrogen. After blocking the membranes with 5% non-fat dry milk, primary antibodies against GR (H-300, Santa Cruz), Cdk1 (BD Transduction Laboratories), and actin (Cell Signalling) were added. Anti-mouse and anti-rabbit horseradish peroxidase-conjugated secondary antibodies were used to detect the primary antibodies. The detection was carried out using Lumilight (Roche) or ECL-Plus (Thermo Scientific).

[3] = tested on: Cdk1; experiment: Western blot, Cdk1 degradation; settings: AtT-20 cells
Method: as §1, §2

[4] = tested on: GR (glucocorticoid receptor); experiment: Evaluation of GR activity (MTV-Luc reporter); settings: AtT-20 cells, 72 hours, in combination with dexamethasone
Method: AtT-20 cells were treated for 72 hours with different doses of (A) 17-AAG, (B) silibinin, or (C) novobiocin. At the end of the treatment, GR activity was measured by transfection of the reporter construct MTV-luc.
AtT-20 cells (3×10^5) were transfected for 3 hours with 1 μg of the MTV-Luc reporter plasmid in 6-well plates. Cell transfection was performed with SuperFect (Qiagen GmbH). After an overnight incubation in culture medium with 10% fetal calf serum, the cells were treated with different HSP90 inhibitors in combination with dexamethasone. Luciferase activity in cell lysates was measured with a Berthold luminometer after addition of luciferin and ATP. Transfection efficiency was determined using the Rous sarcoma virus-β-gal construct. Data are expressed as the ratio of luciferase activity to β-gal activity.

[5] = tested on: AtT-20 cells; experiment: Evaluation of ACTH secretion (RIA); settings: for ACTH secretion: 48 hours, plus dexamethasone 100 nM
Method: AtT-20 cells were treated for 48 hours with the glucocorticoid dexamethasone (100 nM) plus different doses of 17-AAG or silibinin, as indicated in the figure. At the end of the treatment, ACTH was measured by RIA.
AtT-20 cells were treated for 72 hours with 10 μM silibinin in combination with different doses of octreotide, as indicated in the figure.
AtT-20 cells were seeded in 96-well plates in cell culture medium containing dexamethasone to mimic the high glucocorticoid concentration in the blood of patients with Cushing's disease. At the end of the treatment, the cell culture supernatants were collected and frozen. ACTH secreted into the cell culture medium was measured by radio-immunoassay (RIA) in comparison with known amounts of ACTH standards diluted in the same medium. […] The bound and free fractions were separated by centrifugation with charcoal and the radioactivity was measured in a beta-counter.

[6] = tested on: GH3 prolactinoma cells; experiment: Evaluation of prolactin secretion (RIA); settings: 48 hours
Method: 10,000 GH3 prolactinoma cells obtained from the American Type Culture Collection (Rockville, Md.) were seeded onto 96-well plates in DMEM with 10% fetal calf serum. After 24 hours the medium was changed and the attached cells were treated with different doses of the HSP90 inhibitors 17-AAG or silibinin, as indicated in FIG. 10. After 48 hours, culture supernatants were collected and the concentration of prolactin was measured by RIA.

[7] = tested on: GH3 somatotroph adenoma cells; experiment: Evaluation of growth hormone secretion (RIA); settings: 48 hours
Method: 10,000 GH3 somatotroph adenoma cells obtained from the American Type Culture Collection (Rockville, Md.) were seeded onto 96-well plates in DMEM with 10% fetal calf serum. After 24 hours the medium was changed and the attached cells were treated with different doses of the HSP90 inhibitors 17-AAG or silibinin, as indicated in the FIG. 11. After 48 hours, culture supernatants were collected and the concentration of growth hormone was measured by RIA.

[8] = tested on: GH3 cells; experiment: Cell-viability assay WST-1 (toxicity)
[9] = WST-1, growth hormone experiment (Example 07)
[10] = WST-1, prolactin experiment (Example 06)

| Compound | proliferation of AtT-20 cells [1] | GR degradation [2] | Cdk1 degradation [3] | transcriptional activity of GR [4] | ACTH secretion [5] | prolactin secretion [6] | growth hormone secretion [7] | toxicity for GH3 cells [8, 9] | toxicity for GH3 cells [8, 10] | ACTH secretion in combination with octreotide ([5]; 72 hours, 10 μM silibinin plus sub-optimal concentrations of octreotide) |
| --- | --- | --- | --- | --- | --- | --- | --- | --- | --- | --- |
| C=CCNC1=C2C[C@@H](C)C[C@H](OC)[C@H](O)[C@@H](C)/C=C(\C)[C@H](OC(N)=O)[C@@H](OC)/C=C\C=C(/C)C(=O)NC(=CC1=O)C2=O [17-AAG, 17-N-Allylamino-17-demethoxygeldanamycin] | strongly inhibit the proliferation | induces GR degradation | induce degradation of Cdk1 | inhibited this activity | has no effect on ACTH secretion | minimally inhibited prolactin secretion only at a concentration of 1 μM | did not inhibit growth hormone secretion at any of the tested concentrations | Higher concentrations of 17-AAG were toxic | Higher concentrations of 17-AAG were toxic | – |
| CO[C@@H]1[C@@H](OC(N)=O)[C@@H](O)[C@H](Oc2ccc3c(O)c(NC(=O)c4ccc(O)c(CC=C(C)C)c4)c(=O)oc3c2C)OC1(C)C [novobiocin] | strongly inhibit the proliferation | did not produce this effect | induce degradation of Cdk1 | increased the transcriptional activity of GR | – | – | – | – | – | – |
| COc1cc([C@H]2Oc3cc([C@H]4Oc5cc(O)cc(O)c5C(=O)[C@@H]4O)ccc3O[C@@H]2CO)ccc1O [silibinin, (2R,3R)-3,5,7-trihydroxy-2-[(2R,3R)-3-(4-hydroxy-3-methoxyphenyl)-2-(hydroxymethyl)-2,3-dihydrobenzo[b][1,4]dioxin-6-yl]chroman-4-one] | strongly inhibit the proliferation | did not produce this effect | induce degradation of Cdk1 | increased the transcriptional activity of GR | inhibits ACTH secretion | significantly inhibited the secretion of prolactin | significantly inhibited the secretion of growth hormone | no toxicity was observed, even at high concentrations | no toxicity was observed, even at high concentrations | increases the inhibition of ACTH secretion |

From patent publication US9877947B2, “C-terminal HSP90 inhibitors to treat pituitary adenomas” (priority 2013, dated 2018)
